Test results from ChEMBL document CHEMBL5678800 (Mol Cancer Ther, 2009).
Active and inactive are the calls of the source. The calls are words filed in the database; no cut-off is given here.

Tests used:
[1] = target: T1, Protein kinase C zeta type (Homo sapiens, UniProt Q05513); assay: Inhibition of recombinant PKCzeta (unknown origin) incubated for 60 mins in presence of ATP by electrophoretic caliper fluorescence analysis
T1 sequence (Q05513 whole entry): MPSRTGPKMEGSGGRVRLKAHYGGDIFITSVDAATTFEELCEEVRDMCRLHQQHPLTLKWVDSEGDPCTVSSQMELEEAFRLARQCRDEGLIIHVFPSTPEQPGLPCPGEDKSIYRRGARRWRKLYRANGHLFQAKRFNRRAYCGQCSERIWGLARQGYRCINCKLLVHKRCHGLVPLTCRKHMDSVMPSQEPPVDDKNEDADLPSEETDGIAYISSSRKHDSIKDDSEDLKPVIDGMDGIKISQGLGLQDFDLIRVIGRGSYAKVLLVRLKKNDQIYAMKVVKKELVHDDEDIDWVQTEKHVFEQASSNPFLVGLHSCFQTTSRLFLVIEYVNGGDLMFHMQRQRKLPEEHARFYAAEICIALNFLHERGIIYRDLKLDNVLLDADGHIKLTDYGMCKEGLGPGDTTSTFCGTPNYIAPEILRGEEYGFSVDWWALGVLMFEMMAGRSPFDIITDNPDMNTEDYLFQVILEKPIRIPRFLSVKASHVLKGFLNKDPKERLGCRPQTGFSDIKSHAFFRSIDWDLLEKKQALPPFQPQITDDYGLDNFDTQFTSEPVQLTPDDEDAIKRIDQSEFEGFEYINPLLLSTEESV

GTL 16 cell line = assay: Antiproliferative activity against human GTL 16 cell line assessed as inhibition of cell viability incubated for 72 hrs by 3H-thymidine incorporation assay; type: functional, cell-based
[2] = target: High affinity nerve growth factor receptor (Rattus norvegicus, UniProt P35739); assay: Inhibition of TrkA autophosphorylation in rat CD8-TrkA cells by Western blotting analysis; type: cell-based
High affinity nerve growth factor receptor, sequence (P35739 whole entry): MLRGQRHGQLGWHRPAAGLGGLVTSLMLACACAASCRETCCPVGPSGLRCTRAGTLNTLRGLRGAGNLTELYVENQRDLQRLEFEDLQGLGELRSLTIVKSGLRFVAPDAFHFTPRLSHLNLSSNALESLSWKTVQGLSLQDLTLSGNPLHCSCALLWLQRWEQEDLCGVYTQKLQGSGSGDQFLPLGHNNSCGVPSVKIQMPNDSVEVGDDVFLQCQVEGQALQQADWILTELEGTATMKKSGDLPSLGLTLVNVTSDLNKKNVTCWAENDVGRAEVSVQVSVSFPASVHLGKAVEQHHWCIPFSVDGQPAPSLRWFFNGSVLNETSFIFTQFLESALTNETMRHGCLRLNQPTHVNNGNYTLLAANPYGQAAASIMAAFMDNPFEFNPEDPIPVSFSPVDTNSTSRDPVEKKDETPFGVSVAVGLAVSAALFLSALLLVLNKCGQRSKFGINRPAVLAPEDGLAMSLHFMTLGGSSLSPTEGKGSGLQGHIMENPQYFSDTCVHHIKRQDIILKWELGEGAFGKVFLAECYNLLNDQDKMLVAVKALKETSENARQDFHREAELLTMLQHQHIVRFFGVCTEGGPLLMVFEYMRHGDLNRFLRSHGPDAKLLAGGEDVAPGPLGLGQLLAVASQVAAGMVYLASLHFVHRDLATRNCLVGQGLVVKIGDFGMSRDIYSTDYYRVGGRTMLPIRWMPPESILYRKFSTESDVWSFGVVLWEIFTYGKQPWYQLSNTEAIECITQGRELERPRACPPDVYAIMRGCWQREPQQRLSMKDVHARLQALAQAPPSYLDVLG

Rh41 [3] = assay: Induction of cell cycle arrest in human Rh41 cells assessed as accumulation of cells at G2/M phase by measuring >4N DNA content at 10x IC50 incubated for 24 hrs by propidium iodide staining based flow cytometry analysis; type: functional
Rh41 [4] = assay: Induction of cell cycle arrest in human Rh41 cells assessed as accumulation of cells at G2/M phase by measuring >4N DNA content at 10x IC50 incubated for 48 hrs by propidium iodide staining based flow cytometry analysis; type: functional
IGF-1R-Sal = assay: In vivo inhibition of IGF-1R phosphorylation in mouse IGF-1R-Sal cells xenografted in nude mouse at 12.5 mg/kg, po administered for 30 mins by Western blotting analysis; type: functional, organism-based
Mus musculus = assay: Anti-diabetic activity against nude mouse xenografted with mouse IGF-1R-Sal cells assessed as increased serum glucose level at 3.125 mg/kg, po administered for 2 hrs by oral glucose tolerance test (Rvb= 97.40 +/- 5.0 mg/dl); type: functional
[5] = Antitumor activity against mouse IGF-1R-Sal cells xenografted in nude mouse assessed as tumor growth inhibition at 3.1 to 12.5 mg/kg, po administered for 4 days relative to control; type: functional; conditions: dose 3.1-12.5 mg/kg, time 4 day
[6] = Antitumor activity against mouse IGF-1R-Sal cells xenografted in nude mouse assessed as tumor growth inhibition at 6.25 to 150 mg/kg, po administered for 4 days relative to control; type: functional; conditions: dose 6.25-150 mg/kg, time 4 day
GEO [7] = assay: Antitumor activity against human GEO cells xenografted in nude mouse assessed as tumor growth inhibition at 25 mg/kg, po administered for 14 days relative to control; type: functional; conditions: 336 h, time 14 day, read-out: TGI
GEO [8] = assay: Antitumor activity against human GEO cells xenografted in nude mouse assessed as tumor growth inhibition at 25-50 mg/kg, po administered for 14 days relative to control; type: functional; conditions: 336 h, time 14 day, read-out: TGI
Rh41 [9] = assay: Antitumor activity against human Rh41 cells xenografted in nude mouse assessed as tumor growth inhibition at 12 to 50 mg/kg, po administered for 21 days relative to control; type: functional; conditions: dose 12-50 mg/kg, time 21 day
GEO [10] = assay: Antitumor activity against human GEO cells xenografted in nude mouse assessed as tumor growth inhibition at 6.25 mg/kg, po administered for 17 days relative to control; type: functional; conditions: 408 h, time 17 day, read-out: TGI
GEO [11] = assay: Antitumor activity against human GEO cells xenografted in nude mouse assessed as tumor growth inhibition at 6.25 mg/kg, po administered for 3 days in presence of cetuximab at 0.25 mg/kg relative to control; type: functional; conditions: 72 h, time 3 day, read-out: TGI
GEO [12] = assay: Antitumor activity against human GEO cells xenografted in nude mouse assessed as tumor growth delay time at 25 mg/kg, po administered for 17 days relative to control; type: functional; conditions: time 17 day
GEO [13] = assay: Antitumor activity against human GEO cells xenografted in nude mouse assessed as tumor growth delay time at 6.25 mg/kg, po administered for 17 days relative to control; type: functional; conditions: time 17 day
GEO [14] = assay: Antitumor activity against human GEO cells xenografted in nude mouse assessed as tumor growth delay time at 25 mg/kg, po administered for 3 days in presence of cetuximab at 0.25 mg/kg relative to control; type: functional; conditions: time 3 day
GEO [15] = assay: Antitumor activity against human GEO cells xenografted in nude mouse assessed as tumor growth delay time at 12.5 mg/kg, po administered for 3 days in presence of cetuximab at 0.125 mg/kg relative to control; type: functional; conditions: time 3 day
[16] = Toxicity in nude mouse xenografted with human GEO cells assessed as body weight loss at 25 mg/kg, po administered for 17 days; type: organism-based; conditions: in vivo, 408 h, time 17 day
[17] = Toxicity in nude mouse xenografted with human GEO cells assessed as body weight loss at 25 mg/kg, po administered for 3 days in presence of cetuximab at 0.25 mg/kg relative to control; type: organism-based; conditions: in vivo, 72 h, time 3 day
[18] = Toxicity in nude mouse xenografted with human GEO cells assessed as body weight loss at 25 mg/kg, po administered for 3 days in presence of cetuximab at 0.125 mg/kg relative to control; type: organism-based; conditions: in vivo, 72 h, time 3 day
[19] = Toxicity in nude mouse xenografted with human GEO cells assessed as mortality at 25 mg/kg, po administered for 17 days relative to control; type: organism-based; conditions: in vivo, time 17 day
[20] = Toxicity in nude mouse xenografted with human GEO cells assessed as mortality at 12.5 mg/kg, po administered for 3 days in presence of cetuximab at 0.25 mg/kg relative to control; type: organism-based; conditions: in vivo, time 3 day
[21] = Toxicity in nude mouse xenografted with human GEO cells assessed as mortality at 6.25 mg/kg, po administered for 3 days in presence of cetuximab at 0.25 mg/kg relative to control; type: organism-based; conditions: in vivo, time 3 day
[22] = Toxicity in nude mouse xenografted with human GEO cells assessed as mortality at 12.5 mg/kg, po administered for 3 days in presence of cetuximab at 0.125 mg/kg relative to control; type: organism-based; conditions: in vivo, time 3 day
[23] = Plasma concentration in nude mouse xenografted with mouse IGF-1R-Sal cells po administered for 2 hrs by LC-MS/MS analysis

C[C@@]1(C(=O)Nc2ccc(F)nc2)CCCN1c1nc(Nc2cc(C3CC3)n[nH]2)c2cccn2n1 [BMS-754807]
IC50 [1]: > 50000 nM | IC50 (GTL 16 cell line): 200 nM | IC50 [2]: 1020 nM | Activity (Rh41 [3]): Active | Activity (Rh41 [4]): Active | inhibition (IGF-1R-Sal): Active | Activity (Mus musculus): 91 mg/dL | TGI [5]: 80% | TGI [6]: 67% | inhibition in vivo at 25 mg/kg (GEO [7]): 56% | inhibition in vivo at 50 mg/kg (GEO [8]): 41% | TGI (Rh41 [9]): 45% | inhibition in vivo at 6.25 mg/kg (GEO [10]): 24% | inhibition in vivo at 6.25 mg/kg (GEO [11]): 86% | Time (GEO [12]): 7 days | Time (GEO [13]): 3 days | Time (GEO [14]): 24 days | Time (GEO [15]): 30 days | Activity [16]: -1.5 g | Activity [17]: 1.5 g | Activity [18]: 0.6 g | mortality at 408 h [19]: 0% | mortality at 72 h [20]: 0% | mortality at 72 h [21]: 0% | mortality at 72 h [22]: 0% | concentration at 2 h [23]: 94 nM
